From patent US11993574B2, “Pyrazole and imidazole compounds for inhibition of IL-17 and RORgamma” (REATA PHARMACEUTICALS, INC., priority 2018, dated 2024)

Columns and labels:
Assay type in all cases: cell-based
[1] = target: T1, Human RAR-related Orphan Receptor Gamma (RORγ) (Homo sapiens, UniProt P51449); assay: RORγ assay (GAL4-RORγ hybrid luciferase reporter, Indigo Biosciences); settings: inverse-agonist activity, GAL4-RORγ reporter cells, 23 hours
T1 sequence (P51449 269-508 limits assumed): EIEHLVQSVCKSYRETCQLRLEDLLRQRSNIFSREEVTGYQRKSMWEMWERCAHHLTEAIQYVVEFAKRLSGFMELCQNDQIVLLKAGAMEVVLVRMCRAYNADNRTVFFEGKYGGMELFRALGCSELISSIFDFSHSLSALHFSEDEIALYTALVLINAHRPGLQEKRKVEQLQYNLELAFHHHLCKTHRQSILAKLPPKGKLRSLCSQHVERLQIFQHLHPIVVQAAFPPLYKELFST
Summary of the method: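 […]engineered human reporter cell line expressing GAL4-DBD/RORγ-LBD hybrid with GAL4-UAS luciferase; constitutive activity measured as inverse agonism. Cells treated with compound (7.8-2000 nM) for 23 h at 37 °C; luminescence normalized to DMSO, IC50 by variable-slope fit, with parallel viability readout to flag non-specific inhibition.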

[2] = tested on: IL-17A; assay: IL-17 release from differentiated primary human T-cells (IL-17A HTRF assay); settings: primary human CD4+ T cells differentiated into Th17 cells, 45-hour incubation, IL-17A in supernatant; read-out: hIL17 IC50
Summary of the method: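 Primary human CD4+ T cells (~2×10^5/well) given compound (2–500 or 4–1000 nM, 0.1% DMSO), CD3/CD28-activated and Th17-differentiated (TGF-β, IL-6, IL-23, IL-1β) for 45 h at 37° C. Supernatant IL-17A by HTRF against standard curve, normalized to vehicle; IC50 by variable-slope regression, with parallel CyQuant viability.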

[3] = tested on: Nrf2 transcription factor; assay: AREc32 luciferase reporter assay; settings: Homo sapiens; AREc32 cells, 19 hours; concentration required to increase GST ARE luciferase reporter activity by 2-fold; read-out: NRF2 ARE 2-Fold (EC2×)
Summary of the method: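 AREc32 cells (MCF-7 with firefly luciferase under eight rat GSTA2 ARE copies) treated 19 h with compound (0.4-200 nM or 3.9-2000 nM) in triplicate. Luminescence normalized to DMSO as fold-induction, capped at 50-fold. EC2× = concentration giving 2-fold reporter increase, interpolated from variable-slope fit.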

| SMILES | IC50 [1] [nM] | IC50 [2] [nM] | EC (2-fold) [3] [µM] |
| --- | --- | --- | --- |
| C[C@H]1C(=O)C(C#N)=C[C@@]2(C)c3nc(-c4cccc(Br)c4)n(-c4cccc(F)c4)c3CC[C@H]12 [T145] | 92 | 87 | 0.755 |
| C[C@H]1C(=O)C(C#N)=C[C@@]2(C)c3nc(-c4cccc(-c5ccncc5)c4)n(-c4cccc(F)c4)c3CC[C@H]12 [T146] | 106 | 70 | 0.423 |
| C[C@H]1C(=O)C(C#N)=C[C@@]2(C)c3nc(-c4cccc(-c5cncnc5)c4)n(-c4cccc(F)c4)c3CC[C@H]12 [T147] | 108 | 185 | 0.515 |
| C[C@H]1C(=O)C(C#N)=C[C@@]2(C)c3nc(-c4cccc(-c5cncc(F)c5)c4)n(-c4cccc(F)c4)c3CC[C@H]12 [T148] | 149 | 86 | 0.566 |
| C[C@H]1C(=O)C(C#N)=C[C@@]2(C)c3nc(-c4cccc(-c5cnn(C)c5)c4)n(-c4cccc(F)c4)c3CC[C@H]12 [T149] | 159 | 129 | 0.687 |
| Cc1noc(C)c1-c1cccc(-c2nc3c(n2-c2cccc(F)c2)CC[C@@H]2[C@@H](C)C(=O)C(C#N)=C[C@@]32C)c1 [T150] | 135 | 104 | 0.488 |
| C[C@H]1C(=O)C(C#N)=C[C@@]2(C)c3nc(-c4cccc(-c5ccnn5C)c4)n(-c4cccc(F)c4)c3CC[C@H]12 [T151] | 234 | 154 | 0.749 |
| C[C@H]1C(=O)C(C#N)=C[C@@]2(C)c3nc(-c4ccc(-c5ccccc5)cc4)n(-c4cccnc4)c3CC[C@H]12 [T152] | 188 | 131 | 1.16 |
| CC(C)c1ccc(-c2nc3c(n2-c2cccnc2)CC[C@@H]2[C@@H](C)C(=O)C(C#N)=C[C@@]32C)cc1 [T153] | 334 | 108 | 1.25 |
| C[C@H]1C(=O)C(C#N)=C[C@@]2(C)c3nc(-c4ccnc5ccccc45)n(-c4cccnc4)c3CC[C@H]12 [T154] | 572 | 415 | 1.97 |
| C[C@H]1C(=O)C(C#N)=C[C@@]2(C)c3nc(-c4cccc(-c5ccccc5)c4)n(-c4cccnc4)c3CC[C@H]12 [T155] | 201 | 161 | 0.738 |
| CC(C)c1ccc(-c2nc3c(n2-c2cnn(C)c2)CC[C@@H]2[C@@H](C)C(=O)C(C#N)=C[C@@]32C)cc1 [T156] | 117 | 128 | 1.16 |
| C[C@H]1C(=O)C(C#N)=C[C@@]2(C)c3nc(-c4cccc(Cl)c4)n(-c4cnn(C)c4)c3CC[C@H]12 [T157] | 103 | 322 | 1.28 |
| C[C@H]1C(=O)C(C#N)=C[C@@]2(C)c3nc(-c4ccc(Cl)c(Cl)c4)n(-c4cnn(C)c4)c3CC[C@H]12 [T158] | 124 | 240 | 1.09 |
| C[C@H]1C(=O)C(C#N)=C[C@@]2(C)c3nc(-c4cccc(-c5ccncc5)c4)n(-c4cnn(C)c4)c3CC[C@H]12 [T159] | 201 | 273 | 1.08 |
| C[C@H]1C(=O)C(C#N)=C[C@@]2(C)c3nc(-c4ccnc(N5CCOCC5)c4)n(-c4cnn(C)c4)c3CC[C@H]12 [T160] | 562 | 468 | > 2 |
| CC(C)c1ccc(-c2nc3c(n2C2CC2)CC[C@@H]2[C@@H](C)C(=O)C(C#N)=C[C@@]32C)cc1 [T161] | 150 | 113 | 1.02 |
| CC(C)c1ccc(-c2nc3c(n2C(C)C)CC[C@@H]2[C@@H](C)C(=O)C(C#N)=C[C@@]32C)cc1 [T162] | 141 | 137 | 1.12 |
| CC(C)c1ccc(-c2nc3c(n2C)CC[C@@H]2[C@@H](C)C(=O)C(C#N)=C[C@@]32C)cc1 [T163] | 152 | 255 | 1.13 |
| COCCn1c(-c2ccc(C(C)C)cc2)nc2c1CC[C@@H]1[C@@H](C)C(=O)C(C#N)=C[C@@]21C [T164] | 237 | 158 | > 2 |

| SMILES | IC50 [1] [nM] | IC50 [2] [nM] | EC (2-fold) [3] [µM] |
| --- | --- | --- | --- |
| CC(C)c1ccc(-c2nc3c(n2CCOCc2ccccc2)CC[C@@H]2[C@@H](C)C(=O)C(C#N)=C[C@@]32C)cc1 [T165] | 471 | 211 | > 2 |
| CC(C)c1ccc(-c2nc3c(n2Cc2ccccc2)CC[C@@H]2[C@@H](C)C(=O)C(C#N)=C[C@@]32C)cc1 [T166] | 228 | 63 | 1.68 |
| CC(C)c1ccc(-c2nc3c(n2Cc2ccc(F)cc2)CC[C@@H]2[C@@H](C)C(=O)C(C#N)=C[C@@]32C)cc1 [T167] | 245 | 53 | 1.11 |
| CC(C)c1ccc(-c2nc3c(n2Cc2ccccc2F)CC[C@@H]2[C@@H](C)C(=O)C(C#N)=C[C@@]32C)cc1 [T168] | 296 | 43 | 1.29 |
| CC(C)c1ccc(-c2nc3c(n2Cc2ccc(Cl)cc2)CC[C@@H]2[C@@H](C)C(=O)C(C#N)=C[C@@]32C)cc1 [T169] | 371 | 33 | 1.01 |
| CC(C)c1ccc(-c2nc3c(n2Cc2ccccn2)CC[C@@H]2[C@@H](C)C(=O)C(C#N)=C[C@@]32C)cc1 [T170] | 103 | 72 | 0.602 |
| CC(C)c1ccc(-c2nc3c(n2Cc2ccncc2)CC[C@@H]2[C@@H](C)C(=O)C(C#N)=C[C@@]32C)cc1 [T171] | 260 | 157 | 1.01 |
| CC(C)c1ccc(-c2nc3c(n2CCO)CC[C@@H]2[C@@H](C)C(=O)C(C#N)=C[C@@]32C)cc1 [T172] | 178 | > 500 | > 2 |
| CC(C)c1ccc(-c2nc3c([nH]2)CC[C@@H]2[C@@H](C)C(=O)C(C#N)=C[C@@]32C)cc1 [T173] | 1970 | 119 | 0.884 |
| CC(=O)n1c(-c2ccc(C(C)C)cc2)nc2c1CC[C@@H]1[C@@H](C)C(=O)C(C#N)=C[C@@]21C [T174] | 1600 | 368 | 0.923 |
| Cc1cc(-c2ccc(-n3nc(-c4ccncn4)c4c3[C@]3(C)C=C(C#N)C(=O)[C@H](C)[C@H]3CC4)cc2)cnn1 [T176] | 120 | 129 | 0.979 |
| Cc1cc(-c2ccc(-n3nc(-c4ccc(F)cc4)c4c3[C@]3(C)C=C(C#N)C(=O)[C@H](C)[C@H]3CC4)cc2)cnn1 [T177] | 52 | 9 | 0.271 |
| C[C@H]1C(=O)C(C#N)=C[C@@]2(C)c3c(c(-c4ccc(F)cc4)nn3-c3ccc(-c4cccnn4)cc3)CC[C@H]12 [T178] | 64 | 31 | 0.342 |
| Cc1cnnc(-c2ccc(-n3nc(-c4ccc(F)cc4)c4c3[C@]3(C)C=C(C#N)C(=O)[C@H](C)[C@H]3CC4)cc2)c1 [T179] | 37 | 45 | 0.232 |
| C[C@H]1C(=O)C(C#N)=C[C@@]2(C)c3c(c(-c4cccnc4)nn3-c3ccc(-c4ccnc(CF)c4)cc3)CC[C@H]12 [T180] | 55 | 49 | 0.308 |
| C[C@H]1C(=O)C(C#N)=C[C@@]2(C)c3c(c(-c4ccc(F)cc4)nn3-c3ccc(-c4ccnc(CF)c4)cc3)CC[C@H]12 [T181] | 60 | 24 | 0.25 |
| Cc1nc(-c2ccc(-n3nc(-c4ccc(F)cc4)c4c3[C@]3(C)C=C(C#N)C(=O)[C@H](C)[C@H]3CC4)cc2)no1 [T182] | 96 | 32 | 0.249 |
| C[C@H]1C(=O)C(C#N)=C[C@@]2(C)c3c(c(-c4ccc(F)cc4)nn3-c3ccc(-c4ncon4)cc3)CC[C@H]12 [T183] | 113 | 68 | 0.526 |
| Cc1nc(-c2ccc(-n3nc(-c4cccnc4)c4c3[C@]3(C)C=C(C#N)C(=O)[C@H](C)[C@H]3CC4)cc2)no1 [T184] | 116 | 76 | 0.398 |
